Assay results: US20240300976A1, “COMPOUNDS AS MODULATORS OF ENDOPLASMIC RETICULUM AMINOPEPTIDASE 1 (ERAP1)” (GREY WOLF THERAPEUTICS LIMITED, priority 2020, published 2024)

Target: T1, ERAP1 (Homo sapiens, UniProt Q9NZ08)
T1 construct: Purified ERAP1(37-941)-10His (ERAP1); 10His (C)
Assay: ERAP1 mediated hydrolysis of an amide substrate (10-mer inhibition assay), biochemical system
Settings: 10-mer substrate, incubated at 23° C. for 1 h, excitation 279 nm and emission 355 nm; read-out: IC50 vs Decapeptide WRVYEKC(Dnp)ALK-acid (where Dnp is Dinitrophenyl maleimide) (10-mer)
From the text: This peptide has minimal fluorescence as the N-terminal tryptophan residue's fluorescence is quenched by the dinitrophenol (DNP) residue within the peptide. However, as ERAP1 hydrolyses the N-terminal amide bond and tryptophan is released this internal quenching is lost and the reaction is monitored by the increase in tryptophan fluorescence over the course of the assay. For the purposes of this application this assay is referred to as the “1 Omer inhibition assay” and compound potencies are calculated and expressed as 1050 as would be familiar to a person skilled in the art.
Biological Assay 1: ERAP1 Mediated Hydrolysis of an Amide Substrate Measured in a Biochemical System
• 1× Assay buffer (AB): 25 mM Bis-tris propane, 0.05% w/v Hydroxypropylmethylcellulose pH 7.75 made with Optima grade water • Decapeptide WRVYEKC(Dnp)ALK-acid (where Dnp is Dinitrophenyl maleimide) (10-mer) • L-Leucine 7-amido-4-methylcoumarin (L-AMC) • Purified ERAP1(37-941)-10His (ERAP1)
12.5 μL ERAP1 enzyme in 1×AB was combined with 250 nL test compound in DMSO. 12.5 μL of either 240 μM L-AMC in 1×AB or 100 μM 10-mer in 1×AB was added to the reaction and incubated at 23° C. for 1 h. For detection, plates were read at excitation 365 nm and emission 442 nm (L-AMC) or excitation 279 nm and emission 355 nm (10-mer). Compound IC50 was determined using a 4-parameter equation.

T1 sequence (Q9NZ08 37-941): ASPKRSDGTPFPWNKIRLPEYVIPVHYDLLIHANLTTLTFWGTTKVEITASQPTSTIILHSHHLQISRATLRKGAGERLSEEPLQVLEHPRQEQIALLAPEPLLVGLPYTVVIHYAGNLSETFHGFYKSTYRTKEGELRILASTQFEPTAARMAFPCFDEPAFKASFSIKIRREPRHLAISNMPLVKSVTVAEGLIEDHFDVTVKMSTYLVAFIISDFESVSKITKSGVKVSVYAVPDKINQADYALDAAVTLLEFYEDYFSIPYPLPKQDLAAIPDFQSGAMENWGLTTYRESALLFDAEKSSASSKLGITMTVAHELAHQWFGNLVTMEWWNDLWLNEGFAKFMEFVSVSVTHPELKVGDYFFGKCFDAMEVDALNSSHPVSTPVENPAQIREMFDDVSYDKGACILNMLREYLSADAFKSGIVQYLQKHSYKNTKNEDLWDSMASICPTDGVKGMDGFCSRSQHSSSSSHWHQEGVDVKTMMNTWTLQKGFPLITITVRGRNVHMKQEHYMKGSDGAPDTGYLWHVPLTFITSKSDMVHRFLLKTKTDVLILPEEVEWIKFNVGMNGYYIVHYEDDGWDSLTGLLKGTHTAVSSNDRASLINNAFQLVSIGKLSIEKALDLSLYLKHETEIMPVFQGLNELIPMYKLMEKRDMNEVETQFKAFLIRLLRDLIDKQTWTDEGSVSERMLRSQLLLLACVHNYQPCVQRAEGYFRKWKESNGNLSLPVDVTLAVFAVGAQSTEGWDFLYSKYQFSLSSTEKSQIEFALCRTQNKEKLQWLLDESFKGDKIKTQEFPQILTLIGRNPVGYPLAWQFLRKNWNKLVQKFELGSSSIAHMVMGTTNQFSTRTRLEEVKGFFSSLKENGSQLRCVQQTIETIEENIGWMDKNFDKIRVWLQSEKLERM

SMILES	IC50 [nM]
N#Cc1ccc2c(c1)NS(=O)(=O)c1cc(C(=O)O)ccc1OCCCC1CCCCN21 (single isomer, unassigned) [Example 8, 2-cyano-6,7,8,9,9a,10,11,12-octahydro-19H-dibenzo[b,f]pyrido[1,2-h][1]oxa[4]thia[5,8]diazacyclododecine-16-carboxylic acid 18,18-dioxide]	< 250
N#Cc1ccc2c(c1)NS(=O)(=O)c1cc(C(=O)O)ccc1OCCCC1CCCCN21 (single isomer, unassigned) [Example 9, 2-cyano-6,7,8,9,9a,10,11,12-octahydro-19H-dibenzo[b,f]pyrido[1,2-h][1]oxa[4]thia[5,8]diazacyclododecine-16-carboxylic acid 18,18-dioxide]	< 250
N#Cc1ccc2c(c1)NS(=O)(=O)c1cc(C(=O)O)ccc1OCC1CCCCN21 (single isomer, unassigned) [Example 10, 8-cyano-12,13,14,15,15a,16-hexahydro-6H-dibenzo[b,f]pyrido[1,2-h][1,4,5,8]oxathiadiazecine-3-carboxylic acid 5,5-dioxide]	< 250
N#Cc1ccc2c(c1)NS(=O)(=O)c1cc(C(=O)O)ccc1OCC1CCCCN21 (single isomer, unassigned) [Example 11, 8-cyano-12,13,14,15,15a,16-hexahydro-6H-dibenzo[b,f]pyrido[1,2-h][1,4,5,8]oxathiadiazecine-3-carboxylic acid 5,5-dioxide]	250 to 1000
N#Cc1ccc2c(c1)NS(=O)(=O)c1cc(C(=O)O)ccc1OCCCCC1CCCCN21 (single isomer, unassigned) [Example 12, 2-cyano-7,8,9,9a,10,11,12,13-octahydro-6H,20H-dibenzo[b,f]pyrido[1,2-h][1]oxa[4]thia[5,8]diazacyclotridecine-17-carboxylic acid 19,19-dioxide]	250 to 1000
N#Cc1ccc2c(c1)NS(=O)(=O)c1cc(C(=O)O)ccc1OCCCCC1CCCCN21 (single isomer, unassigned) [Example 13, 2-cyano-7,8,9,9a,10,11,12,13-octahydro-6H,20H-dibenzo[b,f]pyrido[1,2-h][1]oxa[4]thia[5,8]diazacyclotridecine-17-carboxylic acid 19,19-dioxide]	< 250
N#Cc1cc2c(cc1Cl)N1CCCCC1COc1ccc(C(=O)O)cc1S(=O)(=O)N2 (single isomer, unassigned) [Example 16, 9-chloro-8-cyano-12,13,14,15,15a,16-hexahydro-6H-dibenzo[b,f]pyrido[1,2-h][1,4,5,8]oxathiadiazecine-3-carboxylic acid 5,5-dioxide]	> 1000
N#Cc1cc2c(cc1Cl)N1CCCCC1COc1ccc(C(=O)O)cc1S(=O)(=O)N2 (single isomer, unassigned) [Example 17, 9-chloro-8-cyano-12,13,14,15,15a,16-hexahydro-6H-dibenzo[b,f]pyrido[1,2-h][1,4,5,8]oxathiadiazecine-3-carboxylic acid 5,5-dioxide]	< 250
CS(=O)(=O)c1ccc2c(c1)NS(=O)(=O)c1cc(C(=O)O)ccc1OCC1CCCCN21 (single isomer, unassigned) [Example 19, 8-(methylsulfonyl)-12,13,14,15,15a,16-hexahydro-6H-dibenzo[b,f]pyrido[1,2-h][1,4,5,8]oxathiadiazecine-3-carboxylic acid 5,5-dioxide]	< 250
CS(=O)(=O)c1ccc2c(c1)NS(=O)(=O)c1cc(C(=O)O)ccc1OCC1CCCCN21 (single isomer, unassigned) [Example 20, 8-(methylsulfonyl)-12,13,14,15,15a,16-hexahydro-6H-dibenzo[b,f]pyrido[1,2-h][1,4,5,8]oxathiadiazecine-3-carboxylic acid 5,5-dioxide]	> 1000
N#Cc1cc2c(cc1Cl)N1CCCCC1CCCCOc1ccc(C(=O)O)cc1S(=O)(=O)N2 (single isomer, unassigned) [Example 26, 3-chloro-2-cyano-7,8,9,9a,10,11,12,13-octahydro-6H, 20H-dibenzo[b,f]pyrido[1,2-h][1]oxa[4]thia[5,8]diazacyclotridecine-17-carboxylic acid 19,19-dioxide]	< 250
N#Cc1cc2c(cc1Cl)N1CCCCC1CCCCOc1ccc(C(=O)O)cc1S(=O)(=O)N2 (single isomer, unassigned) [Example 27, 3-chloro-2-cyano-7,8,9,9a,10,11,12,13-octahydro-6H, 20H-dibenzo[b,f]pyrido[1,2-h][1]oxa[4]thia[5,8]diazacyclotridecine-17-carboxylic acid 19,19-dioxide]	< 250
N#Cc1ccc2c(c1)NS(=O)(=O)c1cc(C(=O)O)ccc1OC/C=C/CC1CCCCN21 (single isomer, unassigned) [Example 32, (E)-2-cyano-7,8,9,9a,10,13-hexahydro-6H, 20H-dibenzo[b,f]pyrido[1,2-h][1]oxa[4]thia[5,8]diazacyclotridecine-17-carboxylic acid 19,19-dioxide]	< 250
N#Cc1ccc2c(c1)NS(=O)(=O)c1cc(C(=O)O)ccc1OC/C=C/CC1CCCCN21 (single isomer, unassigned) [Example 33, (E)-2-cyano-7,8,9,9a,10,13-hexahydro-6H, 20H-dibenzo[b,f]pyrido[1,2-h][1]oxa[4]thia[5,8]diazacyclotridecine-17-carboxylic acid 19,19-dioxide]	> 1000
N#Cc1cc2c(cc1F)N1CCCCC1COc1ccc(C(=O)O)cc1S(=O)(=O)N2 (single isomer, unassigned) [Example 37, 8-cyano-9-fluoro-12,13,14,15,15a,16-hexahydro-6H-dibenzo[b,f]pyrido[1,2-h][1,4,5,8]oxathiadiazecine-3-carboxylic acid 5,5-dioxide]	> 1000
N#Cc1cc2c(cc1F)N1CCCCC1COc1ccc(C(=O)O)cc1S(=O)(=O)N2 (single isomer, unassigned) [Example 38, 8-cyano-9-fluoro-12,13,14,15,15a,16-hexahydro-6H-dibenzo[b,f]pyrido[1,2-h][1,4,5,8]oxathiadiazecine-3-carboxylic acid 5,5-dioxide]	< 250
CS(=O)(=O)c1cc2c(cc1F)N1CCCCC1COc1ccc(C(=O)O)cc1S(=O)(=O)N2 (single isomer, unassigned) [Example 39, 9-fluoro-8-(methylsulfonyl)-12,13,14,15,15a,16-hexahydro-6H-dibenzo[b,f]pyrido[1,2-h][1,4,5,8]oxathiadiazecine-3-carboxylic acid 5,5-dioxide]	< 250
CS(=O)(=O)c1cc2c(cc1F)N1CCCCC1COc1ccc(C(=O)O)cc1S(=O)(=O)N2 (single isomer, unassigned) [Example 40, 9-fluoro-8-(methylsulfonyl)-12,13,14,15,15a,16-hexahydro-6H-dibenzo[b,f]pyrido[1,2-h][1,4,5,8]oxathiadiazecine-3-carboxylic acid 5,5-dioxide]	> 1000
N#Cc1cc2c(cc1F)N1CCCCC1CCCOc1ccc(C(=O)O)cc1S(=O)(=O)N2 (single isomer, unassigned) [Example 41, 2-cyano-3-fluoro-6,7,8,9,9a,10,11,12-octahydro-19H-dibenzo[b,f]pyrido[1,2-h][1]oxa[4]thia[5,8]diazacyclododecine-16-carboxylic acid 18,18-dioxide]	< 250
N#Cc1cc2c(cc1F)N1CCCCC1CCCOc1ccc(C(=O)O)cc1S(=O)(=O)N2 (single isomer, unassigned) [Example 42, 2-cyano-3-fluoro-6,7,8,9,9a,10,11,12-octahydro-19H-dibenzo[b,f]pyrido[1,2-h][1]oxa[4]thia[5,8]diazacyclododecine-16-carboxylic acid 18,18-dioxide]	< 250
CS(=O)(=O)c1cc2c(cc1F)N1CCCCC1CCCCOc1ccc(C(=O)O)cc1S(=O)(=O)N2 (single isomer, unassigned) [Example 43, 3-fluoro-2-(methylsulfonyl)-7,8,9,9a,10,11,12,13-octahydro-6H, 20H-dibenzo[b,f]pyrido[1,2-h][1]oxa[4]thia[5,8]diazacyclotridecine-17-carboxylic acid 19,19-dioxide]	< 250
CS(=O)(=O)c1cc2c(cc1F)N1CCCCC1CCCCOc1ccc(C(=O)O)cc1S(=O)(=O)N2 (single isomer, unassigned) [Example 44, 3-fluoro-2-(methylsulfonyl)-7,8,9,9a,10,11,12,13-octahydro-6H, 20H-dibenzo[b,f]pyrido[1,2-h][1]oxa[4]thia[5,8]diazacyclotridecine-17-carboxylic acid 19,19-dioxide]	250 to 1000
N#Cc1cc2c(cc1Cl)N1CCCCC1C/C=C/COc1ccc(C(=O)O)cc1S(=O)(=O)N2 (single isomer, unassigned) [Example 45, (E)-3-chloro-2-cyano-7,8,9,9a,10,13-hexahydro-6H, 20H-dibenzo[b,f]pyrido[1,2-h][1]oxa[4]thia[5,8]diazacyclotridecine-17-carboxylic acid 19,19-dioxide]	< 250
